Measured values reported in patent publication US6517846B2, “Cosmetic composition” (Kyowa Hakko Kogyo Co., Ltd., priority 2000, dated 2003).
Counter-ions that a name gives are not always drawn. Like-named read-outs stand apart in the source and are kept apart here. Blank lines part the entries; values can stand above or below the compound they belong to.

Experiments:
[1] = test system: human skin (forearm crook, females with roughening skin); assay: Water content in skin after repeated cup treatment (Skicon-200); type: in vivo; details: for Change of water content immediately before the treatment / Change of water content immediately after the second treatment: 5 w/v % solution; for Change of water content immediately before the treatment: twice a day; for water content in the skin, tendency in words: summary of Table 3
[2] = test system: human normal keratinocytes; assay: Cytotoxicity in human normal keratinocytes, MTT method; type: cell-based; details: 48 hours incubation, 1 to 10,000 ppm, pH 7, mean n = 4
Method: (1) A method using 3-(4,5-dimethylthiazol-2-yl)-2,5-diphenyl tetrazolium bromide (MTT method):
This is a method where the number of living cells is evaluated by determining enzyme activity related to respiratory chain present in inner membranes of mitochondria in living cells. The amount of MTT formazan produced after incorporation of MTT into cells was determined by colorimetric quantification at a wavelength of 570 nm (reference: 650 nm). [See Sugawara, et al., “Saibou Baiyou (Cell Culture) III”, 4477-4482 (1984); J. Soc. Cosmet. Chem. Jpn., 27, 498-505 (1993)].
(§1) (4) Using the above three methods for the evaluation of suppression of cytotoxicity, suppressive effects of the test compounds on cytotoxicity were determined as follows.

[3] = test system: human subjects (washing hands); details: grades scored; 1 Very irritative, 5 Very mild; mean n = 5
[4] = test system: human skin (forearm crook, females with roughening skin); details: 78 hours after the first treatment on day 1, 5 w/v % solution
[5] = test system: human normal keratinocytes; assay: Cytotoxicity in human normal keratinocytes, neutral red (NR) method; type: cell-based; details: 48 hours incubation, 1 to 10,000 ppm, pH 7, mean n = 4
Method: (2) Neutral red (NR) method:
NR penetrates plasma membranes and is concentrated in lysosomes in normal cells, but is not capable of being incorporated into cells with surface damages. Thus, the NR method is a method where the number of living cells is evaluated by determining the amount of NR incorporated in living cells (the absorbance at a wavelength of 540 nm was measured), and was carried out according to the NR bioassay data book of Sanko Pure Chemicals.
as §1

[6] = test system: human skin (forearm crook, females with roughening skin)
IL-1α = details: mean n = 2
[7] = Day 1 (0 hr.), baseline defined as 100%, 30 min
[8] = Day 1 (6 hr.), relative to pre-treatment = 100%
[9] = Day 2 (24 hr.), relative to pre-treatment = 100%
[10] = Day 2 (30 hr.), relative to pre-treatment = 100%
[11] = Day 3 (48 hr.), relative to pre-treatment = 100%
[12] = Day 3 (54 hr.), relative to pre-treatment = 100%
[13] = Day 4 (72 hr.), relative to pre-treatment = 100%
[14] = Day 4 (78 hr.), relative to pre-treatment = 100%

Desquamation [4]: A little | Erythema [4]: None | Desquamation ([4]; listed as lauroyl β-alanine): lowest | water transpiration rate, in words ([6]; summary of Table 5): lowest
Compound: CCCCCCCCCCCC(=O)NCCC(=O)O [LBA, sodium salt of lauroyl β-alanine]
Change of water content immediately before the treatment [1, 7]: 100% | Change of water content immediately after the second treatment [1, 8]: 113% | Change of water content immediately before the treatment [1, 9]: 88% | Change of water content immediately after the second treatment [1, 10]: 82% | Change of water content immediately before the treatment [1, 11]: 104% | Change of water content immediately after the second treatment [1, 12]: 104% | Change of water content immediately before the treatment [1, 13]: 93% | Change of water content immediately after the second treatment [1, 14]: 101% | water content in the skin, tendency in words [1]: no effect on the water content was observed | MTT, IC50 [2]: 35 ppm | Irritation (after use), average score [3]: 1.5 | NR, IC50 [5]: 33 ppm

Compound: Triethanolamine N-Cocoyl-L-glutaminate [GMT]
Change of water content immediately before the treatment [1, 7]: 100% | Change of water content immediately after the second treatment [1, 8]: 124% | Change of water content immediately before the treatment [1, 9]: 135% | Change of water content immediately after the second treatment [1, 10]: 126% | Change of water content immediately before the treatment [1, 11]: 168% | Change of water content immediately after the second treatment [1, 12]: 128% | Change of water content immediately before the treatment [1, 13]: 140% | Change of water content immediately after the second treatment [1, 14]: 120% | water content in the skin, tendency in words [1]: tendency to increase with a lapse of time | MTT, IC50 [2]: 70 ppm | NR, IC50 [5]: 53 ppm

Compound: triethanolamine N-cocoyl glutamate [GAT]
Change of water content immediately before the treatment [1, 7]: 100% | Change of water content immediately after the second treatment [1, 8]: 88% | Change of water content immediately before the treatment [1, 9]: 97% | Change of water content immediately after the second treatment [1, 10]: 76% | Change of water content immediately before the treatment [1, 11]: 111% | Change of water content immediately after the second treatment [1, 12]: 78% | Change of water content immediately before the treatment [1, 13]: 80% | Change of water content immediately after the second treatment [1, 14]: 73% | water content in the skin, tendency in words [1]: tendency to decrease immediately after the treatment | IL-1α (IL-1α; 10 ppm test compound): 172.16 pg/well | IL-1α (IL-1α; 30 ppm test compound): 216.18 pg/well | IL-1α (IL-1α; 60 ppm test compound): 333.05 pg/well | IL-1α (IL-1α; 100 ppm test compound): 313.78 pg/well | IL-1α (IL-1α; 300 ppm test compound): 269.13 pg/well | MTT, IC50 [2]: 60 ppm | Irritation (after use), average score [3]: 1.2 | Desquamation [4]: Somewhat aggravated | Erythema [4]: None | Desquamation ([4]; listed as N-cocoyl-L-glutamate): much desquamation | NR, IC50 [5]: 48 ppm | Relative water transpiration rates ([6]; next day after the 4-day treatment, Control = 100, mean n = 4): 138%
